Converted amounts (≈) assume the structure as drawn. Counter-ions that a name gives are not always drawn. Like-named read-outs stand apart in the source and are kept apart here.
Test system: pathogenic bacteria
Experiment: MIC by microdilution broth method (NCCLS M7-A4), in vitro antibacterial activity
Type: cell-based
Summary of the method: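 MIC read after 35 °C incubation for 16–20 h relative to drug-free growth wells. Cation-adjusted Mueller-Hinton broth with two-fold compound dilutions, organisms at roughly 5×10^4 CFU/well final. Method follows NCCLS document M7-A4.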

[1] = Staphylococcus aureus, Organism A: Staphylococcus aureus OC4172, read-out: MIC
[2] = Streptococcus pneumoniae, ATCC49619, Organism E: Streptococcus pneumoniae ATCC 49619, read-out: MIC
[3] = Streptococcus pneumoniae, Organism B: fluoroquinolone-resistant clinical isolate of Streptococcus pneumoniae (QRDR amino acid substitutions)
[4] = Streptococcus pneumoniae, Organism C: fluoroquinolone-resistant clinical isolate of Streptococcus pneumoniae (QRDR amino acid substitutions)
[5] = Streptococcus pneumoniae, Organism D: fluoroquinolone-resistant clinical isolate of Streptococcus pneumoniae (QRDR amino acid substitutions)

SMILES | MIC [1] | MIC [2] | MIC [3] | MIC [4] | MIC [5] | MIC (Staphylococcus aureus, Organism A: Staphylococcus aureus OC4172) | MIC (Streptococcus pneumoniae, ATCC49619, Organism E: Streptococcus pneumoniae ATCC 49619)
NC/C(Cl)=C1\CCCN(c2cc3c(cc2F)c(=O)c(C(=O)O)cn3C2CC2)C1 [Compound 258, (Z)-7-[3-(2-Amino-1-chloro-ethylidene)-piperidin-1-yl]-1-cyclopropyl-6-fluoro-4-oxo-1,4-dihydro-quinoline-3-carboxylic acid] | ≤ 4 µg/mL | 8 µg/mL (≈ 19.7 µM) | 8 µg/mL (≈ 19.7 µM) | > 16 µg/mL | > 16 µg/mL | – | –
NC/C(F)=C1/CCCN(c2c(F)cc3c(=O)c(C(=O)O)cn(C4CC4)c3c2OC(F)F)C1 [Compound 259, (E)-7-[3-(2-Amino-1-fluoro-ethylidene)-piperidin-1-yl]-1-cyclopropyl-8-difluoromethoxy-6-fluoro-4-oxo-1,4-dihydro-quinoline-3-carboxylic acid] | 0.03 µg/mL (≈ 0.0659 µM) | 0.06 µg/mL (≈ 0.132 µM) | 0.5 µg/mL (≈ 1.1 µM) | 1 µg/mL (≈ 2.2 µM) | 0.12 µg/mL (≈ 0.263 µM) | – | –
NC/C(Cl)=C1/CCCN(c2c(F)cc3c(=O)c(C(=O)O)cn(C4CC4)c3c2OC(F)F)C1 [Compound 260, (E)-7-[3-(2-Amino-1-chloro-ethylidene)-piperidin-1-yl]-1-cyclopropyl-8-difluoromethoxy-6-fluoro-4-oxo-1,4-dihydro-quinoline-3-carboxylic acid] | 0.03 µg/mL (≈ 0.0636 µM) | 0.06 µg/mL (≈ 0.127 µM) | – | 0.5 µg/mL (≈ 1.06 µM) | 0.06 µg/mL (≈ 0.127 µM) | – | –
COc1c(N2CCC/C(=C(\Cl)CN)C2)c(F)cc2c(=O)c(C(=O)O)cn(C3CC3)c12 [Compound 261, (E)-7-[3-(2-Amino-1-chloro-ethylidene)-piperidin-1-yl]-1-cyclopropyl-6-fluoro-8-methoxy-4-oxo-1,4-dihydro-quinoline-3-carboxylic Acid Trifluoroacetic Acid Salt] | – | – | 0.06 µg/mL | 0.06 µg/mL | 0.06 µg/mL | ≤ 0.015 µg/mL | ≤ 0.015 µg/mL
COc1c(N2CCC(=C(Cl)CN)CC2)c(F)cc2c(=O)c(C(=O)O)cn([C@@H]3C[C@@H]3F)c12 [Compound 262, 7-[4-(2-Amino-1-chloro-ethylidene)-piperidin-1-yl]-6-fluoro-(1R,2S)-1-(2-fluoro-cyclopropyl)-8-methoxy-4-oxo-1,4-dihydro-quinoline-3-carboxylic acid] | ≤ 0.015 µg/mL | 0.25 µg/mL (≈ 0.551 µM) | – | 1 µg/mL (≈ 2.2 µM) | 1 µg/mL (≈ 2.2 µM) | – | –
Cc1c(F)c(N2CCC(=C(Cl)CN)CC2)cc2c1c(=O)c(C(=O)O)cn2C1CC1 [Compound 263, 7-[4-(2-Amino-1-chloro-ethylidene)-piperidin-1-yl]-1-cyclopropyl-6-fluoro-5-methyl-4-oxo-1,4-dihydro-quinoline-3-carboxylic Acid] | 0.03 µg/mL (≈ 0.0714 µM) | 0.12 µg/mL (≈ 0.286 µM) | 0.5 µg/mL (≈ 1.19 µM) | 1 µg/mL (≈ 2.38 µM) | 0.5 µg/mL (≈ 1.19 µM) | – | –
CNCC(Cl)=C1CCN(c2c(F)cc3c(=O)c(C(=O)O)cn(C4CC4)c3c2O)CC1.Cl [Compound 267, 7-[4-(1-Chloro-2-methylamino-ethylidene)-piperidin-1-yl]-1-cyclopropyl-6-fluoro-8-hydroxy-4-oxo-1,4-dihydro-quinoline-3-carboxylic Acid Hydrochloride Salt] | 0.12 µg/mL | 0.5 µg/mL | 2 µg/mL | 2 µg/mL | 2 µg/mL | – | –
NCC(Cl)=C1CN(c2c(F)cc3c(=O)c(C(=O)O)cn(-c4nc(N)c(F)cc4F)c3c2Cl)C1 [Compound 268, 7-[3-(2-Amino-1-chloro-ethylidene)-azetidin-1-yl]-1-(6-amino-3,5-difluoro-pyridin-2-yl)-8-chloro-6-fluoro-4-oxo-1,4-dihydro-quinoline-3-carboxylic Acid] | ≤ 0.015 µg/mL | 0.03 µg/mL (≈ 0.06 µM) | 0.06 µg/mL (≈ 0.12 µM) | 0.12 µg/mL (≈ 0.24 µM) | 0.12 µg/mL (≈ 0.24 µM) | – | –
NCC(F)=C1CN(c2c(F)cc3c(=O)c(C(=O)O)cn(-c4nc(N)c(F)cc4F)c3c2Cl)C1 [Compound 269, 1-(6-Amino-3,5-difluoro-pyridin-2-yl)-7-[3-(2-amino-1-fluoro-ethylidene)-azetidin-1-yl]-8-chloro-6-fluoro-4-oxo-1,4-dihydro-quinoline-3-carboxylic acid] | ≤ 0.015 µg/mL | 0.03 µg/mL (≈ 0.062 µM) | 0.25 µg/mL (≈ 0.517 µM) | 0.06 µg/mL (≈ 0.124 µM) | – | – | –
NCC(Cl)=C1CCN(c2c(F)cc3c(=O)c(C(=O)O)cn(-c4nc(N)c(F)cc4F)c3c2Cl)CC1 [Compound 270, 7-[4-(2-Amino-1-chloro-ethylidene)-piperidin-1-yl}-1-(6-amino-3,5-difluoropyridin-2-yl)-8-chloro-6-fluoro-4-oxo-1,4-dihydro-quinoline-3-carboxylic Acid] | 0.06 µg/mL (≈ 0.114 µM) | 0.5 µg/mL (≈ 0.946 µM) | – | 4 µg/mL (≈ 7.57 µM) | 2 µg/mL (≈ 3.79 µM) | – | –
NCC(Cl)=C1CCN(c2nc3c(cc2F)c(=O)c(C(=O)O)cn3-c2ccc(F)cc2F)CC1 [Compound 271, 7-[4-(2-Amino-1-chloro-ethylidene)-piperidin-1-yl]-1-(2,4-difluoro-phenyl)-6-fluoro-4-oxo-1,4-dihydro-[1,8]naphthyridine-3-carboxylic acid] | ≤ 0.015 µg/mL | 0.12 µg/mL (≈ 0.251 µM) | 1 µg/mL (≈ 2.09 µM) | 1 µg/mL (≈ 2.09 µM) | 1 µg/mL (≈ 2.09 µM) | – | –
NCC(F)=C1CN(c2cc3c(cc2F)c(=O)c(C(=O)O)cn3C2CC2)C1 [Compound 272, 7-[3-(2-amino-1-fluoro-ethylidene)-azetidin-1-yl]-1-cyclopropyl-6-fluoro-4-oxo-1,4-dihydro-quinoline-3-carboxylic acid] | ≤ 0.015 µg/mL | 0.5 µg/mL (≈ 1.38 µM) | 4 µg/mL (≈ 11.1 µM) | 0.5 µg/mL (≈ 1.38 µM) | – | – | –
COc1c(N2CC(=C(F)CN)C2)c(F)cc2c(=O)c(C(=O)O)cn(C3CC3)c12 [Compound 273, 7-[3-(2-amino-1-fluoro-ethylidene)-azetidin-1-yl]-1-cyclopropyl-6-fluoro-8-methoxy-4-oxo-1,4-dihydro-quinoline-3-carboxylic acid] | 0.03 µg/mL (≈ 0.0767 µM) | 4 µg/mL (≈ 10.2 µM) | 4 µg/mL (≈ 10.2 µM) | 0.5 µg/mL (≈ 1.28 µM) | – | – | –
COc1c(N2CC(=C(F)CN)C2)ccc2c(=O)c(C(=O)O)cn(C3CC3)c12 [Compound 274, 7-[3-(2-amino-1-fluoro-ethylidene)-azetidin-1-yl]-1-cyclopropyl-8-methoxy-4-oxo-1,4-dihydro-quinoline-3-carboxylic acid] | 0.06 µg/mL (≈ 0.161 µM) | 1 µg/mL (≈ 2.68 µM) | 4 µg/mL (≈ 10.7 µM) | 1 µg/mL (≈ 2.68 µM) | – | – | –
COc1c(N2CCC(=C(Cl)CN)CC2)ccc2c(=O)c(C(=O)O)cn(C3CC3)c12 [Compound 275, 7-[4-(2-Amino-1-chloro-ethylidene)-piperidin-1-yl]-1-cyclopropyl-8-methoxy-4-oxo-1,4-dihydro-quinoline-3-carboxylic acid] | 0.03 µg/mL (≈ 0.0718 µM) | 0.12 µg/mL (≈ 0.287 µM) | 1 µg/mL (≈ 2.39 µM) | 1 µg/mL (≈ 2.39 µM) | 1 µg/mL (≈ 2.39 µM) | – | –
C[C@H]1COc2c(N3CC(=C(F)CN)C3)c(F)cc3c(=O)c(C(=O)O)cn1c23 [Compound 276, 9-[3-(2-Amino-1-fluoro-ethylidene)-azetidin-1-yl]-8-fluoro-(3S)-3-methyl-6-oxo-2,3-dihydro-6H-1-oxa-3a-aza-phenalene-5-carboxylic acid] | ≤ 0.015 µg/mL | 0.25 µg/mL (≈ 0.663 µM) | 0.5 µg/mL (≈ 1.33 µM) | 2 µg/mL (≈ 5.3 µM) | 4 µg/mL (≈ 10.6 µM) | – | –
C[C@H]1COc2c(N3CCC(=C(Cl)CN)CC3)c(F)cc3c(=O)c(C(=O)O)cn1c23 [Compound 277, 9-[4-(2-Amino-1-chloro-ethylidene)-piperidin-1-yl]-8-fluoro-(3S)-3-methyl-6-oxo-2,3-dihydro-6H-1-oxa-3a-aza-phenalene-5-carboxylic acid] | ≤ 0.015 µg/mL | 0.03 µg/mL (≈ 0.0711 µM) | 0.25 µg/mL (≈ 0.593 µM) | 0.25 µg/mL (≈ 0.593 µM) | 0.5 µg/mL (≈ 1.19 µM) | – | –
N#CC(CN)=C1CCN(c2nc3c(cc2F)c(=O)c(C(=O)O)cn3C2CC2)CC1 [Compound 283, 7-[4-(2-Amino-1-cyano-ethylidene)-piperidin-1-yl]-1-cyclopropyl-6-fluoro-4-oxo-1,4-dihydro-[1,8]naphthyridine-3-carboxylic Acid] | 0.25 µg/mL (≈ 0.629 µM) | 0.5 µg/mL (≈ 1.26 µM) | 2 µg/mL (≈ 5.03 µM) | 4 µg/mL (≈ 10.1 µM) | 8 µg/mL (≈ 20.1 µM) | – | –
N#CC(CN)=C1CCN(c2cc3c(cc2F)c(=O)c(C(=O)O)cn3C2CC2)CC1 [Compound 285, 7-[4-(2-Amino-1-cyano-ethylidene)-piperidin-1-yl]-1-cyclopropyl-6-fluoro-4-oxo-1,4-dihydro-quinoline-3-carboxylic Acid] | 0.25 µg/mL (≈ 0.631 µM) | 1 µg/mL (≈ 2.52 µM) | – | 8 µg/mL (≈ 20.2 µM) | > 16 µg/mL | – | –
NCC(C(=O)O)=C1CCN(c2nc3c(cc2F)c(=O)c(C(=O)O)cn3C2CC2)CC1 [Compound 286, 7-[4-(2-Amino-1-carboxy-ethylidene)-piperidin-1-yl]-1-cyclopropyl-6-fluoro-4-oxo-1,4-dihydro-[1,8]naphthyridine-3-carboxylic Acid] | 4 µg/mL (≈ 9.61 µM) | 16 µg/mL (≈ 38.4 µM) | – | > 16 µg/mL | > 16 µg/mL | – | –
NCCNCC(Cl)=C1CCN(c2nc3c(cc2F)c(=O)c(C(=O)O)cn3C2CC2)CC1.O=C(O)C(F)(F)F [Compound 289, 7-{4-[2-(2-Amino-ethylamino)-1-chloro-ethylidene]-piperidin-1-yl}-1-cyclopropyl-6-fluoro-4-oxo-1,4-dihydro-[1,8]naphthyridine-3-carboxylic Acid Trifluoroacetic Acid Salt] | 0.5 µg/mL | 0.25 µg/mL | – | 1 µg/mL | 2 µg/mL | – | –
O=CN1CCN(CC(Cl)=C2CCN(c3nc4c(cc3F)c(=O)c(C(=O)O)cn4C3CC3)CC2)CC1 [Compound 291, 7-{4-[1-Chloro-2-(4-formyl)-piperazin-1-yl-ethylidene]-piperidin-1-yl}-1-cyclopropyl-6-fluoro-4-oxo-1,4-dihydro-[1,8]naphthyridine-3-carboxylic Acid Trifluoroacetic Acid Salt] | 2 µg/mL | 8 µg/mL | – | > 16 µg/mL | 8 µg/mL | – | –
